From patent US20150057261A1, “AZETIDINE DERIVATIVES AS SPHINGOSINE-1 PHOSPHATE RECEPTORS MODULATORS” (Allergan, Inc., priority 2013, published 2015)

The compounds below were run against T1, human S1P1 receptor (Homo sapiens, UniProt P21453) (assay: GTP γ35S binding assay for S1P1 activity). Details: membranes of cells stably expressing the S1P1 receptor.
T1 construct: expressed in transfected cells; membranes used
Assay type: biochemical
Protocol: Compounds were synthesized and tested for S1P1 activity using the GTP γ^35S binding assay. These compounds may be assessed for their ability to activate or block activation of the human S1P1 receptor in cells stably expressing the S1P1 receptor.
GTP γ^35S binding was measured in the medium containing (mM) HEPES 25, pH 7.4, MgCl2 10, NaCl 100, dithiothreitol 0.5, digitonin 0.003%, 0.2 nM GTP γ^35S, and 5 μg membrane protein in a volume of 150 μl. Test compounds were included in the concentration range from 0.08 to 5,000 nM unless indicated otherwise. Membranes were incubated with 100 μM 5′-adenylylimidodiphosphate for 30 min, and subsequently with 10 μM GDP for 10 min on ice. Drug solutions and membrane were mixed, and then reactions were initiated by adding GTP γ^35S and continued for 30 min at 25° C. Reaction mixtures were filtered over Whatman GF/B filters under vacuum, and washed three times with 3 mL of ice-cold buffer (HEPES 25, pH7.4, MgCl2 10 and NaCl 100). Filters were dried and mixed with scintillant, and counted for ^35S activity using a β-counter. Agonist-induced GTP γ^35S binding was obtained by subtracting that in the absence of agonist. Binding data were analyzed using a non-linear regression method. In case of antagonist assay, the reaction mixture contained 10 nM […] in the presence of test antagonist at concentrations ranging from 0.08 to 5000 nM.

T1 sequence (P21453 whole entry): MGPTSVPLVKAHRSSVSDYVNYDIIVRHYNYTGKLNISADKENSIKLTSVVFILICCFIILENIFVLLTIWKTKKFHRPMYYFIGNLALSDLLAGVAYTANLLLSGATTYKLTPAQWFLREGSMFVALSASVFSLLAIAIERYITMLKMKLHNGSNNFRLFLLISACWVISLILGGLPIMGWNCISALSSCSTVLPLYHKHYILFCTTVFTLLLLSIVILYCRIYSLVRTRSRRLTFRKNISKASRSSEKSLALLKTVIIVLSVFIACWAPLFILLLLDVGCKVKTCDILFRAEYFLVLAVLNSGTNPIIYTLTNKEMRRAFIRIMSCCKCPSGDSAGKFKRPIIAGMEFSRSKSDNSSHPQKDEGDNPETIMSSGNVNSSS

EC50 [nM]	Structure (SMILES)
17.1	Cc1ccc(CC(CCCc2ccc(CN3CC(C(=O)O)C3)cc2)c2cccc(Cl)c2)cc1C (stereo not drawn) [Compound 2, 1-{4-[4-(3-Chlorophenyl)-5-(3,4-dimethylphenyl)pentyl]benzyl}azetidine-3-carboxylic acid]
64.5	Cc1ccc(CC(CCCCc2ccc(CN3CC(C(=O)O)C3)cc2)c2cccc(Cl)c2)cc1C (stereo not drawn) [Compound 1, 1-{4-[5-(3-Chlorophenyl)-6-(3,4-dimethylphenyl)hexyl]benzyl}azetidine-3-carboxylic acid]
7.33	Cc1ccc(CC(CCCCc2ccc(CN3CC(C(=O)O)C3)cc2)c2cc(F)cc(F)c2)cc1C (stereo not drawn) [Compound 3, 1-{4-[5-(3,5-Difluorophenyl)-6-(3,4-dimethylphenyl)hexyl]benzyl}azetidine-3-carboxylic acid]
